Data taken from patent US11117918B2, “Enzyme-directed immunostimulant and uses thereof” (Washington State University, priority 2016, dated 2021).

Columns and labels:
[1] = test system: RAW-Blue cells; test: RAW-Blue colorimetric assay (NF-κB transcription); type: cell-based
Description: Measurement of RAW-Blue cell activation was performed similarly to manufacturer instructions. For the NF-κB assay, 1×10^5 RAW-Blue cells were seeded in an optically clear bottomed 96-well plate in 180 μL of complete assay media (identical to B16 media) at a density of 1×10^5 cells/well. For co-culture experiments with RAW-Blue and B16 or β-galactosidase-enriched B16 cells, RAW-Blue cells were seeded at a density of 1×10^5 cells/well and were allowed to adhere for 4 h before the addition of the B16 cells, which were seeded at a density of 1×10^5 cells/well. For co-culture experiments with RAW-Blue and β-galactosidase-enriched B16 cells, RAW-Blue cells were seeded at a density of 1×10^5 cells/well and were allowed to adhere for 4 h before the addition off β-galactosidase-enriched B16 cells, which were seeded at a density of 1×10^5 cells/well.
For experiments with β-gal, a stock solution (500 U/mL, where 1 U=1 μmol/min) was used. A final enzymatic activity of 1 U/well was achieved by addition of 2 μL of the 500 U/mL stock solution to each well. Imiquimod or (6) were prepared as 1.15 and 1.49 mg/mL stock solutions, respectively, in DMSO, and were added to the appropriate wells to achieve the specified final concentrations in each experiment ranging from 0.1 to 10 μM. […] The PNPP assays were incubated for 3 h (37° C., 5% CO2), and the absorbance was measured at 405 nm. […]

[2] = test system: AT3B-1 prostate cancer cell line (overexpresses P-glycoprotein 1); test: AT3B-1 cells treated with pro-immunostimulant, absorbance at 420 nm; type: cell-based, rat; details: 10 mM dose, 2−200×10^4 cells/well, 72 h
Description: To evaluate the disclosed compounds for their effect against multidrug-resistant cells and possible pathogen infection, compound 6 was exposed to a multidrug-resistant AT3B-1 prostate cancer cell line that is known to overexpress P-glycoprotein 1 (P-gp). AT3B-1 cells were plated in an optically clear bottomed 96-well plate at a range of densities (2−200×10^4 cells/well) in 180 μL of complete cell media. Each cell density was tested in triplicate with and without a 10 mM dose of compound 6. For wells with compound 6, 20 μL of a 100 mM stock solution of compound 6 in DMSO was used. As a control experiment, compound 6 was converted by exogenous α-Mannosidase (0.1 U/mL) in triplicate. The plate was incubated (37° C., 5% CO2) for 72 h before measuring the absorbance at 420 nm.
The AT3B-1 cell line (ATCC CRL-2375, rat prostate epithelial malignant carcinoma) were grown in complete culture media composed of Roswell Park Memorial Institute (RPMI) 1640 medium with 4.5 g/L glucose, 2 mM L-glutamine, 10,000 U/mL penstrep, 10 mM HEPES and supplemented with 10% HI-FBS and 1 μM doxorubicin. Media was changed every 3-4 days omitting the doxorubicin, and cells were passaged once per week. Passaging involved changing media, counting, and seeding 3×10^5 cells in 35 mL of new complete media in a new T-175 culture flask.

[3] = test system: JAWSII cells; test: JAWSII ELISA cytokine production (TNF, IL-6, IL-12); type: cell-based, murine
Description: Measurement of JAWSII cytokine production was performed similarly to manufacturer instructions. The cytokines analyzed were IL-12, IL-6, and TNF. For the cytokine assays, 1×10^5 JAWSII cells were seeded in an optically clear bottomed 6-well plate in 1 mL of complete assay media (identical to JAWSII growth media) for a density of 1×10^5 cells/well. Cells were incubated for 42 h. For co-culture experiments with JAWSII and B16 or β-galactosidase-enriched B16 cells, JAWSII cells were seeded at a density of 1×10^5 cells/well and allowed to adhere for 42 h before the addition of B16 cells, which were seeded at a density of 1×10^5 cells/well. For co-culture experiments with JAWSII and β-galactosidase-enriched B16 cells, JAWSII cells were seeded at a density of 1×10^5 cells/well and allowed to adhere for 42 h before the addition of β-galactosidase-enriched B16 cells, which were seeded at a density of 1×10^5 cells/well.
For experiments with β-gal, a stock solution (500 U/mL, where 1 U=1 μmol/min) was used. A final enzymatic activity of 1 U/well was achieved by addition of 2 μL of the 500 U/mL stock solution to each well. Stock solutions of Imiquimod or (6) in DMSO (1.15 and 1.49 mg/mL, respectively) were then added to the appropriate wells to achieve a final concentration of 5 μM. The cells were incubated for 16 h (37° C., 5% CO2) before supernatant was collected. Cells were pelletized (200 RCF, 10 min) and removed. Supernatant was analyzed for cytokines without further dilution according to manufacturer instructions for ELISA. Absorbance was analyzed at 450 nm and standard curves were used to determine absolute cytokine concentrations.

In the case of “4-Imiquimod-2-nitrophenyl-galactopyranoside [compound 6]”, the NF-κB transcription ([1]; co-cultures of β-galactosidase-enriched B16 cells and RAW-Blue cells, relative to unaltered B16 co-cultures or RAW-Blue cells alone) is reported as “enhanced”, the RAW-Blue cell activity ([1]; compound alone, relative to compound with 1 U β-galactosidase or Imiquimod, 16 h) is reported as “abrogated” and the “interaction with P-gp” value [2] is reported as “interacting with P-gp”. The “pro-inflammatory cytokine production (TNF, IL-6, IL-12)” value ([3]; 5 μm, without β-galactosidase) was “not induce significant pro-inflammatory cytokine production”, the pro-inflammatory cytokine production ([3]; co-cultures of JAWSII and β-galactosidase-enriched B16 melanoma cells) was “resulted in the production of pro-inflammatory cytokines” and the “cytokine production relative to Imiquimod, all three cytokines (TNF, IL-6, IL-12)” value ([3]; with exogenous β-galactosidase, equimolar Imiquimod) was greater than 80%.
